In EP0579806B1, “MEDICAMENT FOR THE TREATMENT AND/OR PROPHYLAXIS OF FOLATE METABOLISM DISORDERS” (Kragler, Peter, priority 1992, dated 1993):

Test: Red blood count and megakaryocyte function before and after therapy in HIV-positive patients
Type: in vivo, Mensch
Settings: patients pretreated with a chain terminator, before therapy
Source text: Folgende Laborparameter wurden vor und nach der Therapie an 23 HIV-positiven Patienten mit verschiedener klinischer Symptomatik bestimmt: • 1. Rotes Blutbild und Megakaryozytenfunktion • 2. Weißes Blutbild und Lymphozytensubpopulation • 3. Lymphozytenstimulation • 4. Proteine • a) Gesamteiweiß • b) Elektrophorese • c) Immunelektrophorese • d) zirkulierende Immunkomplexe (CIC) • 5. B12-Gehalt • a) Serum pg/ml • b) Erythrozyten pg/ml Zellen • c) mononukleäre Zellen pg/ml Zellen • 6. Folat-Gehalt • a) Serum ng/ml • b) Erythrozyten ng/ml Zellen • c) mononukleäre Zellen ng/ml Zellen • 7. HIV (Elisa) in Titerstufen • 8. HIV - Westernblot (P24-core, P55-gag, gP41-env, gP120-env, gP160-env) mit Bewertung der Banden von + bis ++++ • 9. β2-Mikroglobulin korreliert • a) mit der Aktivität der NK-Zellen (ADCC = antibody dependent cellmediated cytotoxicity) • b) mit der Aktivität der CD8- NK-Zellen • 10. Neopterin Zwischenprodukt der Reaktion GPT (Guanosintriphosphat) --> Tetrahydrobiopterin (Hydroxylierung von Phenylalanin, Tyrosin und Tryptophan) Die Bedeutung von Neopterin ist zur Zeit noch Gegenstand wissenschaftlicher Untersuchungen. • 11. Lysozym (Muramidase) Messung der Granulozytenaktivität • 12. Serologie sexuell übertragbarer Krankheiten (STD) […]

Cc1cn([C@H]2C[C@H](N=[N+]=[N-])[C@@H](CO)O2)c(=O)[nH]c1=O [AZT, Azidothymidin]
makrozytäre, hyperchrome Anämie (MCV, Hbe erhöht): noch ausgeprägter
